One assay deals with T1, cIAP1XBIR3 (Homo sapiens, UniProt Q13490, C308S/R332G/S292A).
T1 construct: made in house
The experiment in a line: Fluorescence polarization peptide binding assay, cIAP1XBIR3. The conditions noted are these: 0.2 μM cIAP1XBIR3, 5 nM AVP-diPhe-FAM probe; for Ki: Ki determined from IC50. The procedure: (§1) Similar cIAP1-BIR3/XIAP-BIR3 and cIAP2-BIR3/XIAP-BIR3 chimeric proteins, cIAP1XBIR3 and cIAP2XBIR3, respectively, were engineered, expressed, and purified in a similar fashion to MLXBIR3SG. As with MLXBIR3SG, the amino acid sequences of these BIR domains retain the native cIAP peptide-binding sites.
(§2) Polarization experiments were performed on an Analyst HT 96-384 (Molecular Devices Corp.) according to the procedure of Keating, S. M., Marsters, J, Beresini, M., Ladner, C., Zioncheck, K., Clark, K., Arellano, F., and Bodary, S. (2000) in Proceedings of SPIE: In Vitro Diagnostic Instrumentation (Cohn, G. E., Ed.) pp 128-137, Bellingham, Wash. Initial polarization experiments were performed in order to determine dissociation constants (Kd) between IAP protein BIR domains and fluorescent probes. Samples for fluorescence polarization affinity measurements were prepared by addition of serial dilutions of MLXBIR3SG, XIAP-BIR3, cIAP1XBIR3, or cIAP2XBIR3 in polarization buffer (50 mM Tris [pH 7.2], 120 mM NaCl, 1% bovine globulins, 5 mM DTT and 0.05% octylglucoside) to 5 nM 5-carboxyflourescein (5-FAM)-conjugated AVP-diphenylalanine-AKK (AVP-diPhe-FAM). The resulting reactions were incubated for 30 minutes at room temperature in 384-well black HE96 plates (Molecular Devices Corp.; Sunnyvale, Calif.) and fluorescence values were measured using standard filters for the fluorescein fluorophore (λex=485 nm, λem=530 nm). Fluorescence polarization values were plotted as a function of the protein concentration and the 50% effective concentration (EC50) values were obtained by fitting the data to a four-parameter equation using KaleidaGraph software (Synergy Software; Reading, Pa.). The apparent Kd values were determined from the EC50 values.
(§3) Inhibition constants (Ki) for the antagonists were determined by addition of 0.06 μM MLXBIR3SG, 0.5 μM XIAP-BIR3, 0.2 μM cIAP1XBIR3 or 0.4 μM cIAP2XBIR3 to wells containing 1:3 serial dilutions of the antagonists, and 5 nM AVP-diPhe-FAM probe in the polarization buffer. After a 10 to 30-minute incubation period, the fluorescence value of each sample was measured. Fluorescence polarization values were plotted as a function of the antagonist concentration, and the 50% inhibitory concentration (IC50) values were determined by fitting the data to a four-parameter equation using KaleidaGraph software. The Ki values for the antagonists were determined from the IC50 values (Keating et al. 2000).

Another assay has as its target T2, MLXBIR3SG (Homo sapiens, UniProt Q96CA5, S150G).
T2 sequence (Q96CA5 with tags, fused parts or gaps S150G): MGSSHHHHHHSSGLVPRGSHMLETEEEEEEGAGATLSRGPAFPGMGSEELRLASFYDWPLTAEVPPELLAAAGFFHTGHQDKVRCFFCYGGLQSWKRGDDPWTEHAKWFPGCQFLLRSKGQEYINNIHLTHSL
Nature of the assay: Fluorescence polarization peptide binding assay, MLXBIR3SG. The following applies: 0.06 μM MLXBIR3SG, 5 nM AVP-diPhe-FAM probe; for Ki: Ki determined from IC50. As to the method: In the following experiments was used a chimeric BIR domain referred to as MLXBIR3SG in which 11 of 110 residues correspond to those found in XIAP-BIR3, while the remainder correspond to ML-IAP-BIR. […] The improved caspase-9 inhibition of the chimeric BIR domain MLXBIR3SG has been correlated with increased inhibition of doxorubicin-induced apoptosis when transfected into MCF7 cells.
as §2, §3

Another assay has as its target T3, cIAP2XBIR3 (Homo sapiens, UniProt Q13489, C294S/R318G/S278A).
T3 construct: made in house
Nature of the assay: Fluorescence polarization peptide binding assay, cIAP2XBIR3. The conditions noted are these: 0.4 μM cIAP2XBIR3, 5 nM AVP-diPhe-FAM probe. The procedure:
as §1
Polarization experiments were performed on an Analyst HT 96-384 (Molecular Devices Corp.) according to the procedure of Keating, S. M., Marsters, J, Beresini, M., Ladner, C., Zioncheck, K., Clark, K., Arellano, F., and Bodary, S. (2000) in Proceedings of SPIE: In Vitro Diagnostic Instrumentation (Cohn, G. E., Ed.) pp 128-137, Bellingham, Wash. Initial polarization experiments were performed in order to determine dissociation constants (Kd) between IAP protein BIR domains and fluorescent probes. […] The resulting reactions were incubated for 30 minutes at room temperature in 384-well black HE96 plates (Molecular Devices Corp.; Sunnyvale, Calif.) and fluorescence values were measured using standard filters for the fluorescein fluorophore (λex=485 nm, λem=530 nm). […] The apparent Kd values were determined from the EC50 values. […]

The target in a further assay is T4, XIAP-BIR3 (Homo sapiens, UniProt P98170).
T4 construct: serial dilutions of MLXBIR3SG, XIAP-BIR3, cIAP1XBIR3, or cIAP2XBIR3
T4 sequence (P98170 241-356 limits assumed): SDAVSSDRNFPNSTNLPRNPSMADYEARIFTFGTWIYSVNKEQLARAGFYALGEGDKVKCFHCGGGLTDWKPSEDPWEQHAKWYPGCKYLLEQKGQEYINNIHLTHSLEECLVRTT
Nature of the assay: Fluorescence polarization peptide binding assay, XIAP-BIR3. The following applies: 0.5 μM XIAP-BIR3, 5 nM AVP-diPhe-FAM probe; for Ki: Ki determined from IC50, read-out: XIAPBIR3 Ki; for IC50: read-out: XIAPBIR3 IC50. The procedure:
as §2, §3

Each structure is given as a SMILES string.

T1 sequence (Q13490 with tags, fused parts or gaps S292A/C308S/R332G): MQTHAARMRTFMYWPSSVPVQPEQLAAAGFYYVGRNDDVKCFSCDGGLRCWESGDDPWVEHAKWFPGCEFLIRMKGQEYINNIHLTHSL
T3 sequence (Q13489 with tags, fused parts or gaps S278A/C294S/R318G): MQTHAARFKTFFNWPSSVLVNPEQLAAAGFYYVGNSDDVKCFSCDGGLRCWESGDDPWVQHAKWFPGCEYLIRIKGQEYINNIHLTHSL

As to `CN[C@@H](C)C(=O)N[C@H](C(=O)N1CCC[C@H]1c1cc2ccnc(-c3ccccc3)c2[nH]1)C1CCOCC1` [compound 1], the half-maximal inhibitory concentration (IC50) at cIAP1XBIR3 came out at 461 nM; at MLXBIR3SG, 158 nM; on cIAP2XBIR3, 502 nM; at XIAP-BIR3, 508 nM. In addition, the inhibitory constant (Ki) amounted to 71.3 nM at cIAP1XBIR3, 36 nM at MLXBIR3SG, 109 nM on cIAP2XBIR3 (Ki determined from IC50) and 90.5 nM at XIAP-BIR3.

On to `CN[C@@H](C)C(=O)N[C@H](C(=O)N1CCC[C@H]1c1cc2ncnc(-c3ccccc3)c2[nH]1)C1CCCCC1` [compound 3], for which the figures for the IC50 at MLXBIR3SG and at XIAP-BIR3 were 131 nM and 445 nM, respectively. Besides, the inhibition constant Ki on MLXBIR3SG stood at 29.8 nM; on XIAP-BIR3 it was 79.2 nM.

Consider `CN[C@@H](C)C(=O)N[C@H](C(=O)N1CCC[C@H]1c1cc2ncnc(-c3ccccc3)c2[nH]1)C1CCOCC1` [compound 4], for which, on MLXBIR3SG, the IC50 came out at 156 nM and the inhibition constant (Ki) is 35.6 nM. Besides, on XIAP-BIR3, the inhibitory constant (Ki) is 76.9 nM and the IC50 came out at 434 nM.

Turning to `CN[C@@H](C)C(=O)N[C@H](C(=O)N1CCC[C@H]1c1cc2nc(C)nc(-c3ccccc3)c2[nH]1)C1CCCCC1` [compound 5], on MLXBIR3SG, the IC50 is 139 nM and the Ki stood at 31.7 nM. Moreover, at XIAP-BIR3, the inhibitory constant (Ki) amounted to 91.5 nM and the half-inhibitory concentration (IC50) worked out at 514 nM.

On to `CN[C@@H](C)C(=O)N[C@H](C(=O)N1CCC[C@H]1c1cc2nc(C)nc(-c3ccccc3)c2[nH]1)C1CCOCC1` [compound 6], for which the figures for the IC50 at MLXBIR3SG and on XIAP-BIR3 were 359 nM and 1130 nM, respectively. Further, the figures for the Ki on MLXBIR3SG and at XIAP-BIR3 were 81.9 nM and 201 nM, respectively.

With `CN[C@@H](C)C(=O)N[C@H](C(=O)N1CCC[C@H]1c1cc2ccnc(-c3ccc(F)cc3)c2[nH]1)C1CCOCC1` [compound 7], on MLXBIR3SG, the IC50 turned out to be 113 nM and the Ki is 25.7 nM. Also, at XIAP-BIR3, the Ki turned out to be 85.6 nM and the half-maximal inhibitory concentration (IC50) is 481 nM.

In the case of `CN[C@@H](C)C(=O)N[C@H](C(=O)N1CCC[C@H]1c1cc2nc(C)nc(-c3ccc(F)cc3)c2[nH]1)C1CCOCC1` [compound 8], at MLXBIR3SG, the IC50 stood at 108 nM and the inhibition constant (Ki) was found to be 24.6 nM. At XIAP-BIR3, the inhibitory constant (Ki) was 89 nM and the half-inhibitory concentration (IC50) amounted to 500 nM.

`CN[C@@H](C)C(=O)N[C@H](C(=O)N1CCC[C@H]1c1cc2nc(C)nc(-c3ccc(F)cc3)c2[nH]1)C1CCCCC1` [compound 9]: the IC50 on MLXBIR3SG stood at 62 nM; at XIAP-BIR3, 364 nM. Also, the inhibition constant (Ki) on MLXBIR3SG is 14.1 nM; at XIAP-BIR3, 64.9 nM.

For `CN[C@@H](C)C(=O)N[C@H](C(=O)N1CCC[C@H]1c1cc2ccnc(-c3ccc(F)cc3)c2[nH]1)C1CCCCC1` [compound 10], the results for the half-inhibitory concentration (IC50) on MLXBIR3SG and at XIAP-BIR3 were 99.3 nM and 574 nM, respectively. Also, the results for the Ki at MLXBIR3SG and at XIAP-BIR3 were 22.6 nM and 102 nM, respectively.

With `CN[C@@H](C)C(=O)N[C@H](C(=O)N1CCC[C@H]1c1cc2ccnc(-c3ccccc3Cl)c2[nH]1)C1CCOCC1` [compound 11], the results for the IC50 at cIAP1XBIR3, on MLXBIR3SG and at XIAP-BIR3 were 194 nM, 648 nM and 682 nM, respectively. For the same compound, the Ki was found to be 30.1 nM on cIAP1XBIR3, 148 nM at MLXBIR3SG and 121 nM on XIAP-BIR3.

Take `CN[C@@H](C)C(=O)N[C@H](C(=O)N1CCC[C@H]1c1cc2ccnc(-c3ccccc3)c2[nH]1)c1ccccc1` [compound 12]: at MLXBIR3SG, the half-maximal inhibitory concentration (IC50) is 144 nM and the inhibitory constant (Ki) amounted to 32.9 nM. Further, the inhibition constant Ki at XIAP-BIR3 was 64.4 nM.

As to `CN[C@@H](C)C(=O)N[C@H](C(=O)N1CCC[C@H]1c1cc2ccnc(-c3ccccc3)c2[nH]1)C1CCCCC1` [compound 13], the concentration for half-maximal inhibition (IC50) at MLXBIR3SG came out at 91 nM. For the same compound, the inhibition constant (Ki) on MLXBIR3SG was 20.7 nM; at XIAP-BIR3 it was 63.8 nM.

The record behind these values is US20110218211A1, “AZAINDOLE INHIBITORS OF IAP” (Genentech, Inc., priority 2008, published 2011).
